Measurements from the supplement of paper PMC10307832.

Assays:
Experiment in all cases: relative viability (nuclei count vs DMSO), 5 days (fraction); higher = more cells survive
RO-3306 + Palbociclib = compound: C1=CC2=C(C=CC(=C2)C=C3C(=O)NC(=NCC4=CC=CS4)S3)N=C1 [RO-3306] + CC(=O)c1c(C)c2cnc(Nc3ccc(N4CCNCC4)cn3)nc2n(C2CCCC2)c1=O [Palbociclib] (partner 0.5 µM)
Outline: (§1)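 The day after seeding in 1536-well plates, lung cancer cell lines were treated by pin tool with a single drug, or with a fixed anchor-drug dose together with five library-drug doses (not always all listed) in √10 steps. After 5 days, a combined fix-and-stain solution (final 0.05% Triton X-100, 1% formaldehyde, 1 ug/ml Hoechst) was added. Nuclei counted on 4× images gave relative viability as treated counts over vehicle counts, reported as the median of duplicate plates.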

RO-3306 + Pemetrexed = compound: C1=CC2=C(C=CC(=C2)C=C3C(=O)NC(=NCC4=CC=CS4)S3)N=C1 [RO-3306] + Nc1nc2[nH]cc(CCc3ccc(C(=O)N[C@@H](CCC(=O)O)C(=O)O)cc3)c2c(=O)[nH]1 [Pemetrexed] (partner 0.2 µM)
Outline: as §1

[1] = compound: O=S(=O)(c1ccccc1)N(CC(F)(F)F)c1ccc(C(O)(C(F)(F)F)C(F)(F)F)cc1 + CC(C)C[C@H](NC(=O)[C@H](Cc1ccccc1)NC(=O)c1cnccn1)B(O)O [Bortezomib] (partner 0.002 µM)
Outline: as §1

[2] = compound: O=S(=O)(c1ccccc1)N(CC(F)(F)F)c1ccc(C(O)(C(F)(F)F)C(F)(F)F)cc1 + Cc1cc(Nc2cc(N3CCN(C)CC3)nc(Sc3ccc(NC(=O)C4CC4)cc3)n2)n[nH]1 [Tozasertib] (partner 0.1 µM)
Outline: as §1

Row | Cell Line | relative viability (RO-3306 + Palbociclib; first compound 0.01 µM) | relative viability (RO-3306 + Palbociclib; first compound 0.03162 µM) | relative viability (RO-3306 + Palbociclib; first compound 0.1 µM) | relative viability (RO-3306 + Palbociclib; first compound 0.3162 µM) | relative viability (RO-3306 + Palbociclib; first compound 1 µM) | relative viability (RO-3306 + Pemetrexed; first compound 0.01 µM) | relative viability (RO-3306 + Pemetrexed; first compound 0.03162 µM) | relative viability (RO-3306 + Pemetrexed; first compound 0.1 µM) | relative viability (RO-3306 + Pemetrexed; first compound 0.3162 µM) | relative viability (RO-3306 + Pemetrexed; first compound 1 µM) | relative viability ([1]; first compound 0.8 µM) | relative viability ([1]; first compound 2.53 µM) | relative viability ([1]; first compound 8 µM) | relative viability ([2]; first compound 0.8 µM) | relative viability ([2]; first compound 2.53 µM) | relative viability ([2]; first compound 8 µM)
1 | NCI-H441 | 0.197 | 0.179 | 0.182 | 0.204 | 0.157 | 0.266 | 0.276 | 0.228 | 0.235 | 0.23 | 0.737 | 0.479 | 0.597 | 0.58 | 0.588 | 0.697
2 | NCI-H460 | 0.191 | 0.12 | 0.142 | 0.26 | 0.136 | 0.0602 | 0.0669 | 0.0671 | 0.0618 | 0.0563 | 1.29 | 1.03 | 1.02 | 0.392 | 0.417 | 0.243
3 | NCI-H520 | 0.254 | 0.224 | 0.235 | 0.261 | 0.267 | 0.811 | 0.67 | 0.714 | 0.646 | 0.727 | 0.962 | 0.785 | 0.626 | 0.435 | 0.463 | 0.476
4 | NCI-H647 | 0.486 | 0.325 | 0.355 | 0.474 | 0.446 | 0.177 | 0.157 | 0.153 | 0.174 | 0.167 | 1.27 | 1.03 | 0.967 | 0.425 | 0.325 | 0.167
5 | NCI-H650 | 0.32 | 0.325 | 0.332 | 0.328 | 0.293 | 0.958 | 0.883 | 0.868 | 0.986 | 0.983 | 0.832 | 0.776 | 0.823 | 0.778 | 0.771 | 0.748
6 | NCI-H661 | 0.421 | 0.45 | 0.394 | 0.386 | 0.383 | 0.966 | 0.954 | 0.929 | 0.926 | 0.963 | 0.885 | 0.883 | 0.642 | 0.333 | 0.34 | 0.361
7 | NCI-H838 | 0.228 | 0.211 | 0.254 | 0.254 | 0.193 | 0.256 | 0.252 | 0.252 | 0.251 | 0.282 | 0.907 | 0.863 | 0.906 | 0.278 | 0.268 | 0.25
8 | NCI-H1355 | 0.421 | 0.406 | 0.405 | 0.412 | 0.38 | 1.15 | 0.976 | 0.961 | 0.97 | 1.05 | 1.39 | 1.12 | 1.1 | 0.555 | 0.5 | 0.518
9 | NCI-H1437 | 0.312 | 0.316 | 0.294 | 0.317 | 0.289 | 0.343 | 0.311 | 0.374 | 0.344 | 0.37 | 0.485 | 0.423 | 0.588 | 0.411 | 0.337 | 0.275
10 | NCI-H1650 | 0.423 | 0.246 | 0.285 | 0.321 | 0.274 | 0.517 | 0.351 | 0.324 | 0.335 | 0.38 | 0.203 | 0.187 | 0.194 | 0.348 | 0.404 | 0.346
11 | NCI-H1651 | 0.542 | 0.456 | 0.505 | 0.538 | 0.496 | 0.644 | 0.569 | 0.554 | 0.556 | 0.54 | 0.981 | 0.957 | 0.797 | 0.734 | 0.687 | 0.564
12 | NCI-H1666 | 0.734 | 0.631 | 0.603 | 0.616 | 0.609 | 0.94 | 0.798 | 0.819 | 0.836 | 0.868 | 0.948 | 0.696 | 0.685 | 0.627 | 0.62 | 0.545
13 | NCI-H1734 | 0.39 | 0.321 | 0.333 | 0.429 | 0.34 | 0.394 | 0.41 | 0.372 | 0.414 | 0.432 | 1.18 | 0.917 | 1.07 | 0.294 | 0.29 | 0.244
14 | NCI-H1755 | 0.421 | 0.474 | 0.48 | 0.417 | 0.45 | 0.656 | 0.505 | 0.446 | 0.426 | 0.404 | 1.07 | 0.933 | 1.03 | 0.501 | 0.553 | 0.426
15 | NCI-H1915 | 0.54 | 0.523 | 0.518 | 0.539 | 0.538 | 0.609 | 0.495 | 0.52 | 0.49 | 0.572 | 1.08 | 0.964 | 0.974 | 0.458 | 0.454 | 0.468
16 | NCI-H1975 | 0.614 | 0.453 | 0.581 | 0.549 | 0.553 | 0.28 | 0.269 | 0.303 | 0.321 | 0.302 | 0.327 | 0.415 | 0.299 | 0.781 | 0.622 | 0.659

Row | Cell Line | relative viability (RO-3306 + Palbociclib; first compound 0.01 µM) | relative viability (RO-3306 + Palbociclib; first compound 0.03162 µM) | relative viability (RO-3306 + Palbociclib; first compound 0.1 µM) | relative viability (RO-3306 + Palbociclib; first compound 0.3162 µM) | relative viability (RO-3306 + Palbociclib; first compound 1 µM) | relative viability (RO-3306 + Pemetrexed; first compound 0.01 µM) | relative viability (RO-3306 + Pemetrexed; first compound 0.03162 µM) | relative viability (RO-3306 + Pemetrexed; first compound 0.1 µM) | relative viability (RO-3306 + Pemetrexed; first compound 0.3162 µM) | relative viability (RO-3306 + Pemetrexed; first compound 1 µM) | relative viability ([1]; first compound 0.8 µM) | relative viability ([1]; first compound 2.53 µM) | relative viability ([1]; first compound 8 µM) | relative viability ([2]; first compound 0.8 µM) | relative viability ([2]; first compound 2.53 µM) | relative viability ([2]; first compound 8 µM)
17 | NCI-H1993 | 0.636 | 0.633 | 0.611 | 0.552 | 0.583 | 0.627 | 0.5 | 0.624 | 0.573 | 0.539 | 1.12 | 0.824 | 1.03 | 0.596 | 0.535 | 0.528
18 | NCI-H2009 | 0.216 | 0.203 | 0.18 | 0.25 | 0.203 | 1.11 | 1.12 | 1.05 | 0.988 | 1.01 | 0.91 | 0.891 | 0.929 | 0.749 | 0.57 | 0.679
19 | NCI-H2023 | 0.389 | 0.376 | 0.276 | 0.443 | 0.251 | 0.233 | 0.23 | 0.209 | 0.274 | 0.262 | 1 | 0.899 | 0.831 | 0.335 | 0.289 | 0.249
20 | NCI-H2085 | 0.448 | 0.48 | 0.506 | 0.446 | 0.471 | 0.958 | 0.859 | 0.803 | 0.907 | 0.962 | 1.12 | 0.943 | 1.02 | 0.809 | 0.727 | 0.688
21 | NCI-H2087 | 0.226 | 0.233 | 0.171 | 0.238 | 0.197 | 0.678 | 0.677 | 0.636 | 0.652 | 0.648 | 0.915 | 0.82 | 0.793 | 0.255 | 0.258 | 0.188
22 | NCI-H2126 | 0.326 | 0.363 | 0.369 | 0.346 | 0.373 | 0.673 | 0.671 | 0.707 | 0.735 | 0.676 | 1.26 | 1.1 | 1.12 | 0.934 | 0.887 | 0.769
23 | NCI-H2228 | 0.753 | 0.404 | 0.622 | 0.771 | 0.433 | 0.356 | 0.36 | 0.347 | 0.355 | 0.265 | 1.13 | 0.872 | 0.906 | 0.265 | 0.176 | 0.183
24 | NCI-H2347 | 0.475 | 0.438 | 0.397 | 0.387 | 0.417 | 0.44 | 0.37 | 0.428 | 0.433 | 0.437 | 1.32 | 0.819 | 0.92 | 0.628 | 0.523 | 0.646
25 | NCI-H2405 | 0.553 | 0.45 | 0.562 | 0.518 | 0.494 | 0.913 | 1.02 | 1.01 | 0.971 | 0.907 | 1.02 | 0.952 | 0.885 | 0.889 | 0.749 | 0.711
26 | NCI-H3122 | 0.188 | 0.18 | 0.19 | 0.199 | 0.209 | 0.203 | 0.193 | 0.456 | 0.195 | 0.197 | 0.989 | 0.963 | 0.907 | 0.419 | 0.424 | 0.489
27 | PC-3 [JPC-3] | 0.54 | 0.563 | 0.567 | 0.495 | 0.569 | 0.783 | 0.753 | 1.01 | 1.07 | 0.37 | 0.642 | 0.743 | 0.744 | 0.819 | 0.838 | 0.767
28 | PC-14 | 0.654 | 0.4 | 0.494 | 0.538 | 0.577 | 0.135 | 0.162 | 0.137 | 0.133 | 0.176 | 0.986 | 0.88 | 0.496 | 0.559 | 0.445 | 0.34
29 | RERF-LC-KJ | 1.27 | 0.993 | 1.16 | 1.1 | 1.08 | 0.515 | 0.48 | 0.493 | 0.459 | 0.449 | 1.12 | 0.95 | 1.02 | 0.5 | 0.445 | 0.523
30 | SK-LU-1 | 0.365 | 0.366 | 0.382 | 0.336 | 0.355 | 1.03 | 0.918 | 0.963 | 0.949 | 0.897 | 1.09 | 1.04 | 1.38 | 0.285 | 0.328 | 0.301
31 | SW 1573 | 0.445 | 0.399 | 0.377 | 0.316 | 0.369 | 0.893 | 0.744 | 0.697 | 0.9 | 0.67 | 1.34 | 0.936 | 0.811 | 0.182 | 0.17 | 0.215
